Results: article PMC5656594 (Scientific Reports, 2017)
Values joined by “and” are separate entries in the source; they are usually repeats but may differ in a detail not shown here. Identical values can stand only once.

What was measured:
[1] = DTG-Mg2+ interaction, titration of DTG fluorescence emission enhancement as a function of [Mg2+]; assay type: physicochemical; details: DTG 1 μM, λex 345 nm, buffer A, hyperbolic titration curve; read-out: Kd of the DTG-Mg^2+ interaction
From the text: Figure 1 Fluorescence properties of INSTIs in solution and influence of divalent cations. […] Corresponding excitation and emission spectra are shown in Supplementary Fig. S1. Excitation and emission slits: Δλex = Δλem = 5 nm (PMT = 750 V). The fluorescence enhancement factor corresponds to the drug fluorescence emission intensity for a given Mg^2+ concentration normalized by the intensity in the absence of Mg^2+. […] The emission intensity was reported as a function of [Mg^2+] (inset). […] The bar graphs in panels A and D show mean ± SD values from three independent experiments. […] Only [Mg2+] and λex: 345 nm appear in the panel, so the substance is left empty.
Furthermore, both drugs display a Mg^2+ dependence of fluorescence intensity, however with some differences. A slight increase of EVG fluorescence intensity was observed upon addition of Mg^2+ (a 3-fold increase for the two excitation modes from 0 to 10 mM Mg^2+; Fig. 1B). […] This Mg^2+-dependent enhancement is related to an increase of the fluorescence quantum yield since no Mg^2+-dependent change in the absorption spectrum was observed (Supplementary Fig. S2A).
Fluorescence excitation and emission spectra of INSTIs were recorded on a Eclipse (Varian) spectrofluorimeter equipped with two polarizers for anisotropy measurements and a thermostated cell holder, using 80 µl solutions placed in micro cells (Hellma). […]

D185N IN^PFV-DNA complex = molecular target: T1, D185N IN^PFV-DNA complex (Human spumaretrovirus, UniProt P14350, D936N); test: Fluorescence enhancement DTG-binding assay, D185N catalytic mutant; parameters: species or system prototype foamy virus (PFV); details: 1 mM Mg2+
T1 construct: The pET-IN-PFV plasmid containing the full-length IN gene was used for mutagenesis; His; made in house; host or cells: E. coli BL21-CodonPlus (DE3)-RIPL
Experimental: The fluorescence intensity was monitored as a function of (IN + DNA) and plotted as a function of the binary IN-DNA complex concentration (measured as explained in Fig. 2E legend). […] (B) The percentage of ternary complexes was calculated using DTG fluorescence enhancement. […] The graphs in panels A-B show representative data of three independent experiments. […] "DTG" is taken from the y-axis title of the same panel.
To note, Mg^2+ is dispensable for the overall DNA-binding step of IN[32],[43]–[45] and thus, the loss of Mg^2+ chelation is not contradictory with results showing that catalytic mutants bind equally well to DNA and in a similar manner than wt IN (Supplementary Fig. S6). However, G187R cannot be considered as a catalytic mutant since it sustains a significant ST activity although weak (≈10% of the wt activity; Fig. 6).
Fluorescence excitation and emission spectra of INSTIs were recorded on a Eclipse (Varian) spectrofluorimeter equipped with two polarizers for anisotropy measurements and a thermostated cell holder, using 80 µl solutions placed in micro cells (Hellma). […] The steady-state fluorescence anisotropy was calculated using: r = (IVV–G x IVH)/(IVV + 2GxIVH) where IVV and IVH correspond to vertical and horizontal components, respectively, when the sample is excited with vertically polarized light. […]

[2] = molecular target: T2, IN^PFV-DNA complexes (DNA#1, DNA#6, DNA#7) (Human spumaretrovirus, UniProt P14350); test: Inhibition of ST activity by DTG using DNA#1, DNA#6 or DNA#7 substrates; assay type: biochemical, prototype foamy virus (PFV); details: 100 nM DTG, 300 nM IN
T2 construct: The full-length wt IN^PFV, the three single mutants of the catalytic triad; His; made in house; host or cells: E. coli BL21-CodonPlus (DE3)-RIPL
From the text: The results in Table 1 cannot discriminate between a direct sequence effect on DTG-binding from an indirect effect via a possible defect in the IN-DNA interaction. The binding of IN to various DNA sequences (DNA#1 #8 #9 and #13) was similar, as measured by fluorescence anisotropy using fluorescein-labeled DNAs (Supplementary Fig. S5A). […] The X-ray structure of the IN^PFV-DNA complex highlights specific contacts (about 9) between amino acids and the bases of the two strands (i.e. reactive and non-transferred DNA strands), up to the 10th position from the reactive strand 3′-end[26]. In particular, there is a specific contact involving a guanine of the non-transferred strand at pos. 10 and the N69 residue. […] To note, based on X-ray structures of ternary RAL/or DTG-IN-DNA complexes[26],[29] in which the INSTI has direct contacts with several bases at pos.
Figure S5. Comparison of the binary INPFV-DNA complex formation using various DNA sequences. (A) The binding of INPFV to various DNA sequences was studied by steady-state […]
concentrations of IN and DNA were mixed in the presence of 1mM Mg2+ and the r parameter was monitored. A constant concentration of Fl-DNA (0.3 µM) was maintained throughout the titration. The percentage of binary complexes as a function of (IN+DNA) was calculated using: %=(r–r0)/(rmax–r0) x100 where r0 and rmax correspond to anisotropy values of free DNA and IN-bound DNA, respectively.
(B) ST activity of IN (200 or
300 nM) after 4h incubation at 37°C using radiolabeled DNA#1, #6 or #7. Results are expressed as percentage of the activity corresponding to: DNA#1 + 300 nM IN. (C) Inhibition of the ST activity by […]
IN concentration was 300 nM. For each substrate,
The bar graphs in panels B-
(also on this page, place not known: PFV-DNA steady -state IN Strand transfer activity (% of ST with and 300 nM IN) strand transfer (% of untreated) Binary IN-DNA complexes (%) DNA#1)

C[C@@H]1CCO[C@H]2Cn3cc(C(=O)NCc4ccc(F)cc4F)c(=O)c(O)c3C(=O)N12 [DTG, dolutegravir]
Kd [1]: ~1200 µM and 1000 to 2000 µM | DTG binding to D185N catalytic mutant (D185N IN^PFV-DNA complex): loss of DTG-binding | ST inhibition by DTG ([2]; IN-DNA#1 complexes): remained DTG-sensitive | ST inhibition by DTG ([2]; IN-DNA#6 complexes): remained DTG-sensitive | ST inhibition by DTG ([2]; IN-DNA#7 complexes): absence of ST inhibition
